Read-outs that look alike come from different tables or passages of the source.
How the values were obtained:
[1] = test system: human neonatal dermal fibroblast (Cryo NHDF-Neo); assay: Ultraviolet irradiation-induced damage test in cultured cell, post-irradiation addition (Alamar Blue); details: UV-A 8 J/cm^2
Method: The cell employed was a commercially available human neonatal dermal fibroblast (Cryo NHDF-Neo, Sanko-Junyaku Co., Ltd.). This cell was inoculated at 2×10^5 cells/mL to a commercially available culture dish of 35 mm in diameter (BD FALCON 353001, Becton Dickinson Japan), where it was cultured in a commercially available cell culture medium (D-MEM (1 g/L glucose, Wako Pure Chemical Industries, Ltd.) supplemented with 10% fetal bovine serum and 1% antibiotic (15240-062, GIBCO) (hereinafter, referred to as “ordinary medium”). This cell was cultured for about 24 hours in a 5% CO2 and saturated water vapor atmosphere at 37° C. (degrees Celsius).
Thereafter, the culture medium for culturing the cell described above was switched to 1 mL of a BSO medium supplemented with a glutathione biosynthesis inhibitor BSO (L-buthionine-(S,R)-sulfoximine, Wako Pure Chemical Industries, Ltd.) at 1×10^−3%, where the culture was conducted for about 24 hours in a 5% CO2 and saturated water vapor atmosphere at 37° C. […] The BSO medium described above was prepared by a 200-fold dilution of a stock solution containing 0.2% BSO dissolved in ethyl alcohol with the ordinary medium described above.
Ferric chloride (II) was dissolved in a distilled water at 2×10^−3%, and the resultant solution was subjected to a 200-fold dilution (final concentration: 1×10^−5%) with a phosphate buffer solution PBS (+) containing calcium ion and magnesium ion to obtain a medium (hereinafter, referred to as “UV irradiation medium”), which was warmed preliminarily to 37° C. before use.
Before UV-A irradiation, the culture medium was replaced with 1 mL of the UV irradiation medium described above. […] The UV dose was measured using UV RADIOMETER UVR-3036/S (Topcon Corporation).
After the ultraviolet irradiation, the medium was switched back to the ordinary medium described above, and the culture was conducted in a 5% CO2 and saturated water vapor atmosphere at 37° C.
Thereafter, the culture medium was supplemented with Alamar Blue (trade mark, Invitrogen) at a final concentration of 10%, and its supernatant was determined for the fluorescent intensity three hours later with an excitation wavelength of 544 nm and a fluorescent wavelength of 590 nm as described by Ahmed S. A. et al. (J. Immunol. Method. 170, 211-224 (1994)) and in accordance with the manufacture's instruction.

[2] = test system: Male hairless mice (Hos: HR-1); details: Example 3, 10 mM in drinking water; for effect on UV-B-induced wrinkling (in words): P=0.55% in Mann-Whitney U test; for number of animals of each wrinkle score after the UV-B irradiation: UV(+) control: one scored 5, two 6, two 7, three 8
From the text: (§1) Male hairless mice (Hos: HR-1, six-week old, Hoshino Laboratory Animals, Inc.) were employed and subjected to a partly modified method by Schwarz et al. (Haratake A. et al. J. Invest. Dermatol. 108:769-775, 1997.) in accordance with the repetitive UV-B irradiation method (Naganuma M. et al. J. Dermatol. Sci. 25:29-35, 2001. Schwartz E. J. Invest. Dermatol. 91:158-161, 1988.) whereby forming wrinkles. Thus, the dorsal region was irradiated with UV-B (light source: Toshiba FL-20 SE fluorescent lamp manufactured by Toshiba Electric) three times a week for 12 weeks. […] The total irradiation dose was 4.482 J/cm^2. The UV dose measured using UVRADIOMETER (UVR-305/365D (II), Topcon Corporation) was employed as a readout. During the UV-B irradiation, 10 mM D-methionine was given via a water supplier bottle. As a control, a tap water was given in the same manner. The water supplier bottle was exchanged once a week.
After the irradiation to the mice described above, the dorsal regions of the mice were photographed, and a partly modified method by Bissett et al. (Bissett D L. et al. Photochemistry and Photobiology 46:367-378, 1987.) was employed to evaluate the degree of wrinkling in accordance with the criteria indicated in Table 1 below. The wrinkle evaluation was performed separately by four observers, who thereafter consulted together to determine a score about the wrinkle grade (hereinafter, simply referred to as “score”).
During the UV-B irradiation, 10 mM L- or D-methionine was given via a water supplier bottle. The UV irradiation and the wrinkling determination were conducted by the methods described in Example 2.

[3] = test system: Male hairless mice (Hos: HR-1)
From the text: as §1
After the end of the UV irradiation, the skin thickness was measured using a thickness gauge (Mitsutoyo Corporation, PK-1012SU). The measured value of the skin thickness was designated as “skin thickness×2”, since the measurement was conducted by pinching the skin with the thickness gauge.

[4] = test system: human neonatal dermal fibroblast (Cryo NHDF-Neo); assay: cells; details: for effect of pre-irradiation addition on viable cells and cell death (in words): pre-irradiation addition 0.001 to 100 μM, UV-A 9 J/cm^2
Method: The ultraviolet irradiation after switching into a medium added with 0.1 μM (micro-molar) D-proline was employed as a positive control, while the ultraviolet irradiation to the medium still being free of such an added amino acid was employed as a negative control.
(degrees Celsius) for 40 hours.

[5] = test system: Male hairless mice (Hos: HR-1); details: Example 2, 10 mM in drinking water
From the text: as §1
After the irradiation to the mice described above, the dorsal regions of the mice were photographed, and a partly modified method by Bissett et al. (Bissett D L. et al. Photochemistry and Photobiology 46:367-378, 1987.) was employed to evaluate the degree of wrinkling in accordance with the criteria indicated in Table 1 below. […]

[6] = Homo sapiens, Fibroblast, light or radiation study, read-out: percentage of the viable cell

SMILES: CSCC[C@@H](N)C(=O)O [D-methionine]
- percentage of the viable cell (positive control) ([1]; added at 0.1 μM, called positive control, negative control 64%): 82%
- effect of post-irradiation addition on viable cells and cell death (in words) ([1]; post-irradiation addition 0.01 to 100 μM): an increased percentage of the viable cell and a reduced cell death
- percentage of the viable cell ([1]; post-irradiation addition at 0.01 μM, negative control 64%): 93%
- percentage of the viable cell ([1]; post-irradiation addition at 0.1 μM, negative control 64%): 84%
- percentage of the viable cell ([1]; post-irradiation addition at 1 μM, negative control 64%): 82%
- percentage of the viable cell ([1]; post-irradiation addition at 100 μM, negative control 64%): 87%
- effect on UV-B-induced wrinkling (in words) [2]: statistically significant reduction in this wrinkling
- number of animals of each wrinkle score after the UV-B irradiation [2]: six animals scored 5 and two animals scored 6
- measured value of the skin thickness (skin thickness×2) ([3]; 10 mM in drinking water during 12 weeks UV-B, total 4.482 J/cm^2, UV(−)/H20 0.81 mm, UV(+)/H20 1.25 mm): 1.00 mm
- effect on UV-B-induced skin thickening (in words) ([3]; 10 mM in drinking water, UV-B total 4.482 J/cm^2, Bonferroni/Dunn test): statistically significant reduction in this skin thickening
- viability at 0.01 µM [4, 6]: 102%
- viability at 0.1 µM [4, 6]: 81%
- viability at 1 µM [4, 6]: 97%
- viability at 10 µM [4, 6]: 114%
- viability at 100 µM [4, 6]: 76%
- effect of pre-irradiation addition on viable cells and cell death (in words) [4]: an increased percentage of the viable cell and a reduced cell death
- number of animals of each wrinkle score after the UV-B irradiation ([5]; UV-B total 4.482 J/cm^2, UV(+) control: 2 scored 4, two 5, one 6, one 7): four animals scored 3, two animals scored 4 and one animal scored 5
- effect on UV-B-induced wrinkling (in words) ([5]; P=1.8% in Mann-Whitney U test): statistically significant reduction in this wrinkling

SMILES: O=C(O)[C@H]1CCCN1 [D-proline, reference compound]
- viability at 0.1 µM [4, 6]: 100%

SMILES: CSCC[C@H](N)C(=O)O [L-methionine]
- effect on UV-B-induced wrinkling (in words) [2]: less effective in reducing the UV-B irradiation-induced wrinkling than D-methionine
- number of animals of each wrinkle score after the UV-B irradiation [2]: one animal scored 4, two animals scored 5, two animals scored 6 and two animals scored 7
- viability at 0.001 µM [4, 6]: 40%
- viability at 0.01 µM [4, 6]: 72%
- viability at 0.1 µM [4, 6]: 67%
- viability at 1 µM [4, 6]: 45%
- viability at 10 µM [4, 6]: 73%
- viability at 100 µM [4, 6]: 62%
- effect of pre-irradiation addition on viable cells and cell death (in words) [4]: an increased percentage of the viable cell and a reduced cell death
